# Reference: US20200016159A1, “N3-CYCLICALLY SUBSTITUTED THIENOURACILS AND USE THEREOF” (Bayer Aktiengesellschaft, priority 2016, published 2020)
# Target: T1, human adenosine A2b receptor (Homo sapiens, UniProt P29275)
# T1 sequence (P29275 1-332): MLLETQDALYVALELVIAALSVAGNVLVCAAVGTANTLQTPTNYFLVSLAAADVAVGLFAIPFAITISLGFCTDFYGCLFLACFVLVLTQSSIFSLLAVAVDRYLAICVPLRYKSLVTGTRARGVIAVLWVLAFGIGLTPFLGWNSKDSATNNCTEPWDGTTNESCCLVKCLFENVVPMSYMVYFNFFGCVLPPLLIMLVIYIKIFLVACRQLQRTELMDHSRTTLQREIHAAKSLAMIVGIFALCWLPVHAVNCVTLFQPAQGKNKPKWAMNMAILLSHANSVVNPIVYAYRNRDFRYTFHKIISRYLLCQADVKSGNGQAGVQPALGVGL
# Assay: Cellular in vitro reporter gene test for A2b receptor activity (antagonism of NECA)
# Assay type: cell-based
# Parameters: expressed in transfected cells; host or cells: CHO-K1 (Chinese hamster ovary) with CRE-luciferase reporter
# Settings: recombinant CHO-K1 cells, CRE-luciferase reporter, co-incubation with EC50 concentration of NECA, 3 hours
# Summary of the method: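 Antagonism measured as block of NECA-induced, cAMP/CRE-dependent luciferase expression in recombinant A2b CHO-K1 cells. NECA used at the EC50 set in a pre-experiment on each test day; luminescence detected after 3 h. Reported as IC50, partly averaged and rounded to two significant figures.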
row,SMILES,IC50 [nM]
1,"CO[C@H]1C[C@@H](n2c(=O)c3c(C)c(Cn4nc[nH]c4=O)sc3n(CCC(F)(F)F)c2=O)C1 [Example 158, 3-(cis-3-Methoxycyclobutyl)-5-methyl-6-[(5-oxo-4,5-dihydro-1H-1,2,4-triazol-1-yl)methyl]-1-(3,3,3-trifluoropropyl)thieno[2,3-d]pyrimidine-2,4(1H,3H)-dione]",180
2,"COCCn1c(=O)n([C@H]2C[C@@H](OC)C2)c(=O)c2c(C)c(CN3CCNC3=O)sc21 [Example 159, 3-(cis-3-Methoxycyclobutyl)-1-(2-methoxyethyl)-5-methyl-6-[(2-oxoimidazolidin-1-yl)methyl]thieno[2,3-d]pyrimidine-2,4(1H,3H)-dione]",200
3,"COCCn1c(=O)n([C@H]2C[C@@H](OC)C2)c(=O)c2c(C)c(CN3CCNC3=NC#N)sc21 [Example 160, [1-{[3-(cis-3-Methoxycyclobutyl)-1-(2-methoxyethyl)-5-methyl-2,4-dioxo-1,2,3,4-tetrahydrothieno[2,3-d]pyrimidin-6-yl]methyl}imidazolidin-2-ylidene]cyanamide]",200
4,"COCCn1c(=O)n([C@H]2C[C@@H](OC)C2)c(=O)c2c(C)c(CN3CCNC3=NC(=O)OC)sc21 [Example 161, Methyl [1-{[3-(cis-3-methoxycyclobutyl)-1-(2-methoxyethyl)-5-methyl-2,4-dioxo-1,2,3,4-tetrahydrothieno[2,3-d]pyrimidin-6-yl]methyl}imidazolidin-2-ylidene]carbamate]",130
5,"COC(=O)N=C1NCCN1Cc1sc2c(c1C)c(=O)n(C1CC(C)(C)C1)c(=O)n2CCC(F)(F)F [Example 166, Methyl [1-{[3-(3,3-dimethylcyclobutyl)-5-methyl-2,4-dioxo-1-(3,3,3-trifluoropropyl)-1,2,3,4-tetrahydrothieno[2,3-d]pyrimidin-6-yl]methyl}imidazolidin-2-ylidene]carbamate]",4.7
6,"Cc1c(CN2CCNC(=O)C2=O)sc2c1c(=O)n(C1CC(C)(C)C1)c(=O)n2CCC(F)(F)F [Example 167, 3-(3,3-Dimethylcyclobutyl)-6-[(2,3-dioxopiperazin-1-yl)methyl]-5-methyl-1-(3,3,3-trifluoropropyl)thieno[2,3-d]pyrimidine-2,4(1H,3H)-dione]",5.3
7,"Cc1c(Cn2nc[nH]c2=O)sc2c1c(=O)n(C1CC(C)(C)C1)c(=O)n2CCC(F)(F)F [Example 168, 3-(3,3-Dimethylcyclobutyl)-5-methyl-6-[(5-oxo-4,5-dihydro-1,2,4-triazol-1-yl)methy]-1-(3,3,3-trifluoropropyl)thieno[2,3-d]pyrimidine-2,4(1H,3H)-dione]",16
8,"COCCn1c(=O)n(C2CC(C)(C)C2)c(=O)c2c(C)c(CN3CCNC3=O)sc21 [Example 169, 3-(3,3-Dimethylcyclobutyl)-1-(2-methoxyethyl)-5-methyl-6-[(2-oxoimidazolidin-1-yl)methyl]thieno[2,3-d]pyrimidine-2,4(1H,3H)-dione]",14
9,"COC(=O)N=C1NCCN1Cc1sc2c(c1C)c(=O)n(C1CC3(CCC3)C1)c(=O)n2CCC(F)(F)F [Example 176, Methyl [1-{[5-methyl-2,4-dioxo-3-(spiro[3.3]hept-2-yl)-1-(3,3,3-trifluoropropyl)-1,2,3,4-tetrahydrothieno[2,3-d]pyrimidin-6-yl]methyl}imidazolidin-2-ylidene]carbamate]",4
10,"COCCn1c(=O)n(C2CC3(CCC3)C2)c(=O)c2c(C)c(CN3CCNC3=O)sc21 [Example 179, 1-(2-Methoxyethyl)-5-methyl-6-[(2-oxoimidazolidin-1-yl)methyl]-3-(spiro[3.3]hept-2-yl)thieno[2,3-d]pyrimidine-2,4(1H,3H)-dione]",10
11,"COCCn1c(=O)n(C2CC3(CCC3)C2)c(=O)c2c(C)c(CN3CCNC3=NC#N)sc21 [Example 180, [1-{[1-(2-Methoxyethyl)-5-methyl-2,4-dioxo-3-(spiro[3.3]hept-2-yl)-1,2,3,4-tetrahydrothieno[2,3-d]pyrimidin-6-yl]methyl}imidazolidin-2-ylidene]cyanamide]",13
12,"COCCn1c(=O)n(C2CC3(CCC3)C2)c(=O)c2c(C)c(CN3CCNC(=O)C3=O)sc21 [Example 182, 6-[(2,3-Dioxopiperazin-1-yl)methyl]-1-(2-methoxyethyl)-5-methyl-3-(spiro[3.3]hept-2-yl)thieno[2,3-d]pyrimidine-2,4(1H,3H)-dione]",27

# Results, then the molecule that gave them:
row,IC50 [nM],SMILES
1,63,"CO[C@H]1C[C@@H](n2c(=O)c3c(C)c(CN4CCNC(=O)C4=O)sc3n(CCC(F)(F)F)c2=O)C1 [Example 157, 6-[(2,3-Dioxopiperazin-1-yl)methyl]-3-(cis-3-methoxycyclobutyl)-5-methyl-1-(3,3,3-trifluoropropyl)thieno[2,3-d]pyrimidine-2,4(1H,3H)-dione]"
2,730,"COCCn1c(=O)n([C@H]2C[C@@H](OC)C2)c(=O)c2c(C)c(CN3CCNC(=O)C3=O)sc21 [Example 162, 6-[(2,3-Dioxopiperazin-1-yl)methyl]-3-(cis-3-methoxycyclobutyl)-1-(2-methoxyethyl)-5-methylthieno[2,3-d]pyrimidine-2,4(1H,3H)-dione]"
3,1200,"COCCn1c(=O)n([C@H]2C[C@@H](OC)C2)c(=O)c2c(C)c(Cn3nc[nH]c3=O)sc21 [Example 163, 3-(cis-3-Methoxycyclobutyl)-1-(2-methoxyethyl)-5-methyl-6-[(5-oxo-4,5-dihydro-1H-1,2,4-triazol-1-yl)methyl]thieno[2,3-d]pyrimidine-2,4(1H,3H)-dione]"
4,4.6,"Cc1c(CN2CCNC2=O)sc2c1c(=O)n(C1CC(C)(C)C1)c(=O)n2CCC(F)(F)F [Example 164, 3-(3,3-Dimethylcyclobutyl)-5-methyl-6-[(2-oxoimidazolidin-1-yl)methyl]-1-(3,3,3-trifluoropropyl)thieno[2,3-d]pyrimidine-2,4(1H,3H)-dione]"
5,14,"Cc1c(CN2CCNC2=NC#N)sc2c1c(=O)n(C1CC(C)(C)C1)c(=O)n2CCC(F)(F)F [Example 165, [1-{[3-(3,3-Dimethylcyclobutyl)-5-methyl-2,4-dioxo-1-(3,3,3-trifluoropropyl)-1,2,3,4-tetrahydrothieno[2,3-d]pyrimidin-6-yl]methyl}imidazolidin-2-ylidene]cyanamide]"
6,8.6,"COCCn1c(=O)n(C2CC(C)(C)C2)c(=O)c2c(C)c(CN3CCNC3=NC#N)sc21 [Example 170, [1-{[3-(3,3-Dimethylcyclobutyl)-1-(2-methoxyethyl)-5-methyl-2,4-dioxo-1,2,3,4-tetrahydrothieno[2,3-d]pyrimidin-6-yl]methyl}imidazolidin-2-ylidene]cyanamide]"
7,17,"COCCn1c(=O)n(C2CC(C)(C)C2)c(=O)c2c(C)c(CN3CCNC3=NC(=O)OC)sc21 [Example 171, Methyl [1-{[3-(3,3-dimethylcyclobutyl)-1-(2-methoxyethyl)-5-methyl-2,4-dioxo-1,2,3,4-tetrahydrothieno[2,3-d]pyrimidin-6-yl]methyl}imidazolidin-2-ylidene]carbamate]"
8,36,"COCCn1c(=O)n(C2CC(C)(C)C2)c(=O)c2c(C)c(CN3CCNC(=O)C3=O)sc21 [Example 172, 3-(3,3-Dimethylcyclobutyl)-6-[(2,3-dioxopiperazin-1-yl)methyl]-1-(2-methoxyethyl)-5-methylthieno[2,3-d]pyrimidine-2,4(1H,3H)-dione]"
9,83,"COCCn1c(=O)n(C2CC(C)(C)C2)c(=O)c2c(C)c(Cn3nc[nH]c3=O)sc21 [Example 173, 3-(3,3-Dimethylcyclobutyl)-1-(2-methoxyethyl)-5-methyl-6-[(5-oxo-4,5-dihydro-1H-1,2,4-triazol-1-yl)methyl]thieno[2,3-d]pyrimidine-2,4(1H,3H)-dione]"
10,2.8,"Cc1c(CN2CCNC2=O)sc2c1c(=O)n(C1CC3(CCC3)C1)c(=O)n2CCC(F)(F)F [Example 174, 5-Methyl-6-[(2-oxoimidazolidin-1-yl)methyl]-3-(spiro[3.3]hept-2-yl)-1-(3,3,3-trifluoropropyl)thieno[2,3-d]pyrimidine-2,4(1H,3H)-dione]"
11,18,"Cc1c(CN2CCNC2=NC#N)sc2c1c(=O)n(C1CC3(CCC3)C1)c(=O)n2CCC(F)(F)F [Example 175, [1-{[5-Methyl-2,4-dioxo-3-(spiro[3.3]hept-2-yl)-1-(3,3,3-trifluoropropyl)-1,2,3,4-tetrahydrothieno[2,3-d]pyrimidin-6-yl]methyl}imidazolidin-2-ylidene]cyanamide]"
12,17,"Cc1c(CN2CCNC(=O)C2=O)sc2c1c(=O)n(C1CC3(CCC3)C1)c(=O)n2CCC(F)(F)F [Example 177, 6-[(2,3-Dioxopiperazin-1-yl)methyl]-5-methyl-3-(spiro[3.3]hept-2-yl)-1-(3,3,3-trifluoropropyl)thieno[2,3-d]pyrimidine-2,4(1H,3H)-dione]"
13,26,"Cc1c(Cn2nc[nH]c2=O)sc2c1c(=O)n(C1CC3(CCC3)C1)c(=O)n2CCC(F)(F)F [Example 178, 5-Methyl-6-[(5-oxo-4,5-dihydro-1H-1,2,4-triazol-1-yl)methyl]-3-(spiro[3.3]hept-2-yl)-1-(3,3,3-trifluoropropyl)thieno[2,3-d]pyrimidine-2,4(1H,3H)-dione]"
14,6.7,"COCCn1c(=O)n(C2CC3(CCC3)C2)c(=O)c2c(C)c(CN3CCNC3=NC(=O)OC)sc21 [Example 181, Methyl [1-{[1-(2-methoxyethyl)-5-methyl-2,4-dioxo-3-(spiro[3.3]hept-2-yl)-1,2,3,4-tetrahydrothieno[2,3-d]pyrimidin-6-yl]methyl}imidazolidin-2-ylidene]carbamate]"
